From patent US10894807B2 (Siemens Medical Solutions USA, Inc., priority 2011, dated 2021)

Target: human PSMA (Homo sapiens (Human), UniProt Q04609)
Experiment: Enzymatic assay for in vitro evaluation of PSMA inhibitors (fluorescent assay of PSMA activity, NAAG substrate, OPA detection of glutamate)
Format: biochemical
Settings: for PSMA Blkg % (10 μM): compound at 10 μM
Protocol: Enzymatic Assay for In Vitro Evaluation of PSMA Inhibitors
The inhibitory activity of all compounds was determined using a fluorescent assay of human PSMA activity. The enzyme used in the assay was purchased from R&D Systems and stored at −80° C. The PSMA activity was assayed in a two-step process. In the first step, aliquots of enzyme (0.2 μg/mL) were incubated for 1 h at 37° C. in 50 mM HEPES, 0.1 M NaCl, pH 7.5, in the presence of 20 μM NAAG and the given inhibitor, in a volume of 250 μL, to allow for the accumulation of glutamate produced in the PSMA reaction. In the second step, the amount of accumulated glutamate was measured using the OPA reaction, and the fluorescence was read with a SpectraMax fluorescent plate reader using excitation at 330 nm and emission at 450 nm. The final Ki values for each inhibitor were calculated from the respective IC50 values using the Cheng and Prusoff equation.

Chain of human PSMA (Q04609 whole entry): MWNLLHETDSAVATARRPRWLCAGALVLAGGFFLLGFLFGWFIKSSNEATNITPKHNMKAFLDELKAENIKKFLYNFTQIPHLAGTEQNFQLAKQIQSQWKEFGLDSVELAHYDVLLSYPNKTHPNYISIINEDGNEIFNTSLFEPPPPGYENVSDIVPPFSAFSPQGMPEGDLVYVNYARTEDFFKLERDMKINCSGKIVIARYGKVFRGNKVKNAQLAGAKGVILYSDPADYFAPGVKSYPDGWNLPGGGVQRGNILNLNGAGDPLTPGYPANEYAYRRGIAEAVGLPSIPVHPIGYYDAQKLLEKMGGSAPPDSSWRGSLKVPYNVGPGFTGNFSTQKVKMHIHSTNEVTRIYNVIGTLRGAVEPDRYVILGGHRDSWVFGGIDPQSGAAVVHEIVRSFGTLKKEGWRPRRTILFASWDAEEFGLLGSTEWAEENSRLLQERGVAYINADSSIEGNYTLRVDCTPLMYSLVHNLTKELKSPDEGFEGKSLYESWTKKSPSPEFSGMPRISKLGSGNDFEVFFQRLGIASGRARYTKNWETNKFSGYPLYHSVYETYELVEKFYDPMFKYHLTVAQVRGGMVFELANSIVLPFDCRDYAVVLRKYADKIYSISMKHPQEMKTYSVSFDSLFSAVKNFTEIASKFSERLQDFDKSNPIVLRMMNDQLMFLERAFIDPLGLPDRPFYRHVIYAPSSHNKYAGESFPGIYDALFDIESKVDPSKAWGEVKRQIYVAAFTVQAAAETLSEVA

Structure (SMILES) | Ki [µM] | PSMA Blkg % (10 μM) [%]
CN(C(=O)N[C@@H](CCC(=O)O)C(=O)O)[C@@H](CCCCNC(=O)c1ccc(-n2cc(CCCF)nn2)cc1)C(=O)O [P053, (S)-2-(3-((S)-1-Carboxy-5-(4-(4-(3-fluoropropyl)-1H-1,2,3-triazol-1-yl)benzamido)pentyl)-3-methylureido)pentanedioic Acid] | 0.0313 | 94
O=C(O)CC[C@H](NC(=O)N[C@@H](CCCCNC(=O)c1ccc(-n2cc(CCCF)nn2)cc1)C(=O)O)C(=O)O [P054] | 0.0016 | 100
O=C(O)CC[C@@H](C(=O)O)N1C(=O)CC(=O)N([C@@H](CCCCNC(=O)OCc2ccccc2)C(=O)O)C1=O [P055, (S)-2-(3-((S)-5-(Benzyloxycarbonylamino)-1-carboxypentyl)-2,4,6-trioxotetrahydropyrimidin-1(2H)-yl)pentanedioic Acid] | 0.344 | 94
O=C(O)CC[C@H](NC(=O)NNC(=O)OCc1ccccc1)C(=O)O [P056, (S)-2-(2-((Benzyloxy)carbonyl)hydrazinecarboxamido)pentanedioic Acid] | – | 0
[N-]=[N+]=Nc1ccc(C(=O)NCCCC[C@@H](C(=O)O)N2C(=O)CC(=O)N([C@@H](CCC(=O)O)C(=O)O)C2=O)cc1 [P057, (S)-2-(3-((S)-5-(4-Azidobenzamido)-1-carboxypentyl)-2,4,6-trioxotetrahydropyrimidin-1(2H)-yl)pentanedioic Acid] | – | 32
[N-]=[N+]=Nc1ccc(C(=O)NCCCC[C@H](NC(=O)N[C@@H](CCC(=O)O)C(=O)O)C(=O)O)cc1 [P058, (S)-2-(3-((S)-5-(4-Azidobenzamido)-1-carboxypentyl)ureido)pentanedioic Acid] | – | 100
CN(C(=O)N[C@@H](CCC(=O)O)C(=O)O)[C@@H](CCCCNC(=O)c1ccc(N=[N+]=[N-])cc1)C(=O)O [P059, (S)-2-(3-((S)-5-(4-Azidobenzamido)-1-carboxypentyl)-3-methylureido)pentanedioic Acid] | 0.0125 | 99
O=C(O)CCC(NC(=O)N[C@@H](CCC(=O)O)C(=O)O)C(=O)O (stereo partly drawn) [P060] | – | 96
NNC(=O)N[C@@H](CCC(=O)O)C(=O)O [P061, (S)-2-(Hydrazinecarboxamido)pentanedioic Acid] | – | 0
[N-]=[N+]=NCCCC(=O)Nc1ccc(C[C@H](NC(=O)N[C@@H](CCC(=O)O)C(=O)O)C(=O)O)cc1 [P062, (S)-2-(3-((S)-2-(4-(4-Azidobutaneamido)phenyl)-1-carboxyethyl)-ureido)-pentanedioic Acid] | – | 97
CN(C(=O)N[C@@H](CCC(=O)O)C(=O)O)[C@@H](Cc1ccc(NC(=O)CCCN=[N+]=[N-])cc1)C(=O)O [P063, (S)-2-(3-((S)-2-(4-(4-Azidobutaneamido)phenyl)-1-carboxyethyl)-3-methylureido)-pentanedioic Acid] | – | 30
O=C(O)CC[C@@H](C(=O)O)N1C(=O)CC(=O)N([C@@H](CCCCNC(=O)c2ccc(-n3cc(CCCF)nn3)cc2)C(=O)O)C1=O [P064, (S)-2-(3-((S)-1-Carboxy-5-(4-(4-(3-fluoropropyl)-1H-1,2,3-triazol-1-yl)benzamido)pentyl)-2,4,6-trioxotetrahydropyrimidin-1(2H)-yl)pentanedioic Acid] | – | 46
CC(=O)N(CCCCN1C(=O)c2ccccc2C1=O)NC(=O)N[C@@H](CCC(=O)O)C(=O)O [P066, (S)-2-(2-Acetyl-2-(4-(1,3-dioxoisoindolin-2-yl)butyl)hydrazinecarboxamido)-pentanedioic Acid] | – | 12
O=C(O)CC[C@H](NC(=O)N[C@@H](Cc1ccc(NC(=O)CCCCCn2cc(CCCF)nn2)cc1)C(=O)O)C(=O)O [P067, (S)-2-(3-((S)-1-Carboxy-2-(4-(6-(4-(3-fluoropropyl)-1H-1,2,3-triazol-1-yl)hexamido)phenyl)ethyl)ureido)pentanedioic Acid] | – | 52
CN(C(=O)N[C@@H](CCC(=O)O)C(=O)O)[C@@H](Cc1ccc(NC(=O)CCCCCn2cc(CCCF)nn2)cc1)C(=O)O [P068] | – | 27
O=C(O)CC[C@H](NC(=O)N(O)C(CCCCNC(=O)OCc1ccccc1)C(=O)O)C(=O)O (stereo partly drawn) [P069, (13S)-10-Hydroxy-3,11-dioxo-1-phenyl-2-oxa-4,10,12-triazapentadecane-9,13,15-tricarboxylic Acid] | 0.25 | 94

Structure (SMILES) | Ki [µM] | PSMA Blkg % (10 μM) [%]
O=C(O)CC[C@H](NC(=S)NC(CCCCNC(=O)OCc1ccccc1)C(=O)O)C(=O)O (stereo partly drawn) [P070, (13S)-3-Oxo-1-phenyl-11-thioxo-2-oxa-4,10,12-triazapentadecane-9,13,15-tricarboxylic Acid] | 0.059 | 94
O=C(O)CC[C@H](NC(=S)N(O)C(CCCCNC(=O)OCc1ccccc1)C(=O)O)C(=O)O (stereo partly drawn) [P071, (13S)-10-Hydroxy-3-oxo-1-phenyl-11-thioxo-2-oxa-4,10,12-triazapentadecane-9,13,15-tricarboxylic Acid] | 0.031 | 96
O=C(O)CC[C@@H](C(=O)O)N1C(=O)C(=O)N([C@@H](CCCCNC(=O)OCc2ccccc2)C(=O)O)C1=O [P072, (S)-2-(3-((S)-5-(Benzyloxycarbonylamino)-1-carboxypentyl)-2,4,5-trioxoimidazolidin-1-yl)pentanedioic Acid] | – | 39
[N-]=[N+]=NCCCCC(=O)NCCCC[C@@H](C(=O)O)N1C(=O)CC(=O)N([C@@H](CCC(=O)O)C(=O)O)C1=O [P073, (S)-2-(3-((S)-5-(5-Azidopentanamido)-1-carboxypentyl)-2,4,6-trioxotetrahydropyrimidin-1(2H)-yl)pentanedioic Acid] | – | 2
O=C(O)CC[C@@H](C(=O)O)N1C(=O)CC(=O)N([C@@H](CCCCNC(=O)Cn2cc(CCCF)nn2)C(=O)O)C1=O [P074, (S)-2-(3-((S)-1-Carboxy-5-(2-(4-(3-fluoropropyl)-1H-1,2,3-triazol-1-yl)acetamido)pentyl)-2,4,6-trioxotetrahydropyrimidin-1(2H)-yl)pentanedioic Acid] | – | 10
O=C(O)CC[C@H](NC(=O)N1CCC[C@H]1C(=O)O)C(=O)O [P075, (S)-2-((S)-2-Carboxypyrrolidine-1-carboxamido)pentanedioic Acid] | – | 32
O=C(O)CC[C@@H](C(=O)O)N1C(=O)CC(=O)N([C@@H](CCCCNC(=O)CCCCn2cc(CCCF)nn2)C(=O)O)C1=O [P076, (S)-2-(3-((S)-1-Carboxy-5-(5-(4-(3-fluoropropyl)-1H-1,2,3-triazol-1-yl)pentanamido)pentyl)-2,4,6-trioxotetrahydropyrimidin-1(2H)-yl)pentanedioic Acid] | – | 14
CC1(C)C(=O)N([C@@H](CCCCNC(=O)OCc2ccccc2)C(=O)O)C(=O)N([C@@H](CCC(=O)O)C(=O)O)C1=O [P077, (S)-2-(3-((S)-5-(Benzyloxycarbonylamino)-1-carboxypentyl)-5,5-dimethyl-2,4,6-trioxotetrahydropyrimidin-1(2H)-yl)pentanedioic Acid] | – | 28
CCC1C(=O)N([C@@H](CCCCNC(=O)OCc2ccccc2)C(=O)O)C(=O)N([C@@H](CCC(=O)O)C(=O)O)C1=O (stereo partly drawn) [P078, (2S)-2-(3-((S)-5-(Benzyloxycarbonylamino)-1-carboxypentyl)-5-ethyl-2,4,6-trioxotetrahydropyrimidin-1(2H)-yl)pentanedioic Acid] | > 0.312 | –
CCC1(CC)C(=O)N([C@@H](CCCCNC(=O)OCc2ccccc2)C(=O)O)C(=O)N([C@@H](CCC(=O)O)C(=O)O)C1=O [P079, (S)-2-(3-((S)-5-(Benzyloxycarbonylamino)-1-carboxypentyl)-5,5-diethyl-2,4,6-trioxotetrahydropyrimidin-1(2H)-yl)pentanedioic Acid] | 0.313 | –
CN(C(=O)N[C@@H](CCC(=O)O)C(=O)O)[C@@H](CCCCNC(=O)CCCCCn1cc(CCCF)nn1)C(=O)O [P080, (S)-2-(3-((S)-1-Carboxy-5-(6-(4-(3-fluoropropyl)-1H-1,2,3-triazol-1-yl)-hexamido)pentyl)-3-methylureido)pentanedioic Acid] | – | 90
O=C(O)CCC(NC(=O)N1CC(NC(=O)CCCCn2cc(CCCF)nn2)C[C@H]1C(=O)O)C(=O)O (stereo partly drawn) [P081, 2-((2S)-2-Carboxy-4-(5-(4-(3-fluoropropyl)-1H-1,2,3-triazol-1-yl)pentanamido)pyrrolidine-1-carboxamido)pentanedioic Acid] | – | 25
C[C@H](NC(=O)N[C@@H](CCC(=O)O)C(=O)O)C(=O)NCCF [P082, (S)-2-(3-((S)-1-((2-Fluoroethyl)amino)-1-oxopropan-2-yl)ureido)pentanedioic Acid] | – | 4
CN(CCCC[C@H](NC(=O)N[C@@H](CCC(=O)O)C(=O)O)C(=O)O)C(=O)OCc1ccccc1 [P083, (9S,13S)-4-Methyl-3,11-dioxo-1-phenyl-2-oxa-4,10,12-triazapentadecane-9,13,15-tricarboxylic Acid] | – | 100
O=C(O)CC[C@@H](C(=O)O)n1c(=O)[nH]c(=O)n([C@@H](CCCCNC(=O)OCc2ccccc2)C(=O)O)c1=O [P084, (S)-2-(3-((S)-5-(Benzyloxycarbonylamino)-1-carboxypentyl)-2,4,6-trioxo-1,3,5-triazinan-1-yl)pentanedioic Acid] | – | 19
Cn1c(=O)n([C@@H](CCCCNC(=O)OCc2ccccc2)C(=O)O)c(=O)n([C@@H](CCC(=O)O)C(=O)O)c1=O [P085, (S)-2-(3-((S)-5-(Benzyloxycarbonylamino)-1-carboxypentyl)-5-methyl-2,4,6-trioxo-1,3,5-triazinan-1-yl)pentanedioic Acid] | – | 0
